According to US20260083865A1, “PROSTATE SPECIFIC MEMBRANE ANTIGEN (PSMA) LIGANDS AND USE THEREOF” (priority 2022, published 2026):
Where two headings read alike, the source gives them in different places. Blank lines part the entries; values can stand above or below the compound they belong to. Numbered stars: 1 amine (or outer) side, 2 acyl side, 3 side chain; on linkers, the order of the positions; unused ones are H or OH. Bridge positions count the residues as written; N and C are the ends. Square brackets hold non-standard residues; d marks the D form. Peptide text beside a SMILES is read from it. * marks the point of attachment. DOTA = O=C(O)CN1CCN(CC(=O)O)CCN(CC(=O)*)CCN(CC(=O)O)CC1; Phe(4-Cl) = N[C@@H](Cc1ccc(Cl)cc1)C(=O)O; 2Pal = N[C@@H](Cc1ccccn1)C(=O)O; X1 = O=C(CC1CCN([*:1])CC1)[*:2]; Cit = NC(=O)NCCC[C@H](N)C(=O)O; Tle = CC(C)(C)[C@H](N)C(=O)O; Isovaleryl = CC(C)CC(=O)*; Nle = CCCC[C@H](N)C(=O)O; Orn = NCCC[C@H](N)C(=O)O; Aib = CC(C)(N)C(=O)O; GABA = NCCCC(=O)O; βAla = NCCC(=O)O

Experiments:
[1] = biological target: T1, PSMA-expressing C4-2 cells (Homo sapiens, UniProt Q04609); experiment: FACS binding assay (competition with 50 nM PSM-0183); settings: read-out: pIC50 [C4-2] CAT (converted)
T1 construct: PSMA-expressing C4-2 cells (ATCC, Cat. No. CRL-3314) were cultured in RPMI-1640; host or cells: C4-2 cells
Summary of the method: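 C4-2 cells were incubated 1 h at 4 °C with 50 nM AF488-labelled peptide PSM-0183 plus increasing test compound concentrations, then washed twice in ice-cold buffer. Median fluorescence in the AF488 channel was read by flow cytometry. IC50/pIC50 was derived by 4PL fitting of MFI versus concentration.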

[2] = biological target: T2, Fc-fusion protein of human PSMA (hPSMA-Fc) (Homo sapiens, UniProt Q04609); experiment: Surface plasmon resonance assay (Biacore T200, single cycle kinetic); type: binding; settings: read-out: pKD CAT (converted)
T2 construct: purchased Acro Biosystems PSA-H5264
Summary of the method: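 hPSMA-Fc was captured (~1000 RU) on an Fc-binding-peptide CM5 chip, and compounds were run in single cycle kinetic mode at 25° C in HBST with 0.1% DMSO. Double-blank-corrected sensorgrams were fitted to a 1:1 Langmuir model to give KD, reported as pKD.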

[3] = pIC50 category of FACS binding, C4-2 cells
[4] = pKD category for PSMA SPR activity assay, hPSMA-Fc, 25° C.
[5] = FACS binding, C4-2 cells, category
[6] = FACS binding, PSMA-expressing C4-2 cells, pIC50 category
[7] = PSMA SPR assay, hPSMA-Fc, 25° C., pKD category

T2 sequence (Q04609 44-750 limits assumed): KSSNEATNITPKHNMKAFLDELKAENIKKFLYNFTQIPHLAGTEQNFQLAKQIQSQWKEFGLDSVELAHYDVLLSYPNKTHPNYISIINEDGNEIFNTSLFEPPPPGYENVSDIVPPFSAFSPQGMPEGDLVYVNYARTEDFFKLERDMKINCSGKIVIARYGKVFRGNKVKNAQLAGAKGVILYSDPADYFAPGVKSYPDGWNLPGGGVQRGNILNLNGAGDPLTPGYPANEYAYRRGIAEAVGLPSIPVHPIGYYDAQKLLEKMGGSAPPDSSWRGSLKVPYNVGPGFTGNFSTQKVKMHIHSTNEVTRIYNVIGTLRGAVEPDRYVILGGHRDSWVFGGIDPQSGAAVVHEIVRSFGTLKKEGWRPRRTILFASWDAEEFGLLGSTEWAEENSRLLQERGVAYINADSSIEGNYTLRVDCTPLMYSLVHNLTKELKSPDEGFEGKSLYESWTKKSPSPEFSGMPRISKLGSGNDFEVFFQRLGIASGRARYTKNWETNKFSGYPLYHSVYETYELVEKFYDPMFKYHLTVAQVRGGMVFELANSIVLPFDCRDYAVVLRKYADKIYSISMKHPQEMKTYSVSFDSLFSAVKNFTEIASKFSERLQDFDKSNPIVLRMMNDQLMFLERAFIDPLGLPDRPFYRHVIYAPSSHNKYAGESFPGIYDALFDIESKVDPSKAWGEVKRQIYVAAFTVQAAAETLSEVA
T1 sequence (Q04609 whole entry): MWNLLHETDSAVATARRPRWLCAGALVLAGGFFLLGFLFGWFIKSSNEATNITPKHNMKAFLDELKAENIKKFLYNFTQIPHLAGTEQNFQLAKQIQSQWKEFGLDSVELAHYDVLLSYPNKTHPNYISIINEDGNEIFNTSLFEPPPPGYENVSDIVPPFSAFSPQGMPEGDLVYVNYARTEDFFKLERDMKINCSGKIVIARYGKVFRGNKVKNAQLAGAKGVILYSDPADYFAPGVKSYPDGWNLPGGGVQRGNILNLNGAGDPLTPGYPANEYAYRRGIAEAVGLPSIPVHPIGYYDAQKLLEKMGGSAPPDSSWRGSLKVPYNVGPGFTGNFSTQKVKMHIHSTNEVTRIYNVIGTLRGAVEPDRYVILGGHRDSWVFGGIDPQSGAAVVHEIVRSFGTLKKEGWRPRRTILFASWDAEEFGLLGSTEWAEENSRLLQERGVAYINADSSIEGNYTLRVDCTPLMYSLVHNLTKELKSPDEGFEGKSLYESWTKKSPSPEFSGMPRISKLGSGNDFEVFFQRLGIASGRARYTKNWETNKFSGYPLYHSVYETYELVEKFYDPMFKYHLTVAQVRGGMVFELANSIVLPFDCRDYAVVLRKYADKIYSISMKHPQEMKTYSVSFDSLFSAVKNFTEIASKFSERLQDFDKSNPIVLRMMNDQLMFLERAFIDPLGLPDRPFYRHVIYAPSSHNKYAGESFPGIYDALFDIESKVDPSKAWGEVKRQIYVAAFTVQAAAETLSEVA

SMILES: CC(=O)N[C@H](C(=O)NC(C)(C)C(=O)N[C@@H](Cc1ccccc1)C(=O)N[C@H]1CSSC[C@@H](C(=O)N[C@H](C(=O)NCCC(N)=O)C(C)(C)C)NC(=O)[C@H](CC(N)=O)NC(=O)C(C)(C)NC(=O)[C@H](CCCNC(=N)N)NC(=O)[C@H](CCCCN)NC1=O)[C@@H](C)O [PSM-0426, Ac-Thr-Aib-Phe-[Cys-Lys-Arg-Aib-Asn-Cys]-Tle-Bal-NH2] (Ac-T[Aib]FCKR[Aib]NC[Tle][βAla]-NH2; disulfide 4-9)
- IC50 [1, 3]: < 200 nM
- Kd [2, 4]: < 12.6 nM

SMILES: C[C@@H](O)[C@H](NC(=O)[C@@H](NC(=O)[C@@H]1CSSC[C@H](NC(=O)[C@H](Cc2ccc(Cl)cc2)NC(=O)C(C)(C)NC(=O)[C@@H](NC(=O)CC2CCN(C(=O)CN3CCN(CC(=O)O)CCN(CC(=O)O)CCN(CC(=O)O)CC3)CC2)[C@@H](C)O)C(=O)N[C@@H](CCCN)C(=O)N[C@@H](CCCNC(=N)N)C(=O)NC(C)(C)C(=O)N[C@@H](CC(N)=O)C(=O)N1)C(C)(C)C)C(N)=O [PSM-0511, DOTA-Cmp-Thr-Aib-Pcf-[Cys-Om-Arg-Aib-Asn-Cys]-Tle-Thr-NH2] ({DOTA}-[X1]T[Aib][Phe(4-Cl)]C[Orn]R[Aib]NC[Tle]T-NH2; disulfide 5-10)
- IC50 [1, 3]: < 200 nM
- Kd [2, 4]: < 12.6 nM

SMILES: CCCC[C@H](NC(=O)[C@@H]1CSSC[C@H](NC(=O)[C@H](Cc2ccccc2)NC(=O)[C@H](C)NC(=O)[C@@H](NC(C)=O)[C@@H](C)O)C(=O)N[C@@H](CCCCN)C(=O)N[C@@H](CCCNC(=N)N)C(=O)N[C@@H](C)C(=O)N[C@@H](CC(N)=O)C(=O)N1)C(=O)N[C@H](C(=O)NCCCC(=O)O)[C@@H](C)O [PSM-0313, Ac-Thr-Ala-Phe-[Cys-Lys-Arg-Ala-Asn-Cys]-Nle-Thr-Gab-OH] (Ac-TAFCKRANC[Nle]T[GABA]-OH; disulfide 4-9)
- IC50 [1, 6]: 200 to 1260 nM
- Kd [2, 7]: 126 to 501 nM

SMILES: CC(C)CC(=O)NC(C)(C)C(=O)N[C@@H](Cc1ccccc1)C(=O)N[C@H]1CSSC[C@@H](C(=O)N[C@H](C(=O)N[C@H](C(=O)N[C@H](CCCCNC(=O)CN2CCN(CC(=O)O)CCN(CC(=O)O)CCN(CC(=O)O)CC2)C(N)=O)[C@@H](C)O)C(C)(C)C)NC(=O)[C@H](CC(N)=O)NC(=O)C(C)(C)NC(=O)[C@H](CCCNC(=N)N)NC(=O)[C@H](CCCCN)NC1=O [PSM-0292, Iva-Aib-Phe-[Cys-Lys-Arg-Aib-Asn-Cys]-Tle-Thr-lys(DOTA)-NH2] (Isovaleryl-[Aib]FCKR[Aib]NC[Tle]T[dK](DOTA)-NH2; disulfide 3-8)
- IC50 [1, 6]: < 200 nM
- Kd [2, 7]: 12.6 to 126 nM

Second part, the compound after the results:

- IC50 [1, 5]: < 200 nM
- Kd ([2]; PSMA SPR assay, category): < 12.6 nM
SMILES: CC(=O)N[C@H](C(=O)NC(C)(C)C(=O)N[C@@H](Cc1ccccc1)C(=O)N[C@H]1CSSC[C@@H](C(=O)N[C@H](C(=O)N[C@H](C(N)=O)[C@@H](C)O)C(C)(C)C)NC(=O)[C@H](Cc2c[nH]c3ccccc23)NC(=O)C(C)(C)NC(=O)[C@H](CCCNC(=N)N)NC(=O)[C@H](CCCCN)NC1=O)[C@@H](C)O [PSM-0589, Ac-Thr-Aib-Phe-[Cys-Lys-Arg-Aib-Trp-Cys]-Tle-Thr-NH2] (Ac-T[Aib]FCKR[Aib]WC[Tle]T-NH2; disulfide 4-9)

- IC50 [1, 3]: 200 to 1260 nM
- Kd [2, 4]: 12.6 to 126 nM
SMILES: C[C@@H](O)[C@H](NC(=O)[C@@H](NC(=O)[C@@H]1CSSC[C@H](NC(=O)[C@H](Cc2ccccn2)NC(=O)C(C)(C)NC(=O)[C@@H](NC(=O)CC2CCN(C(=O)CN3CCN(CC(=O)O)CCN(CC(=O)O)CCN(CC(=O)O)CC3)CC2)[C@@H](C)O)C(=O)N[C@@H](CCCCN)C(=O)N[C@@H](CCCNC(N)=O)C(=O)NC(C)(C)C(=O)N[C@@H](CC(N)=O)C(=O)N1)C(C)(C)C)C(N)=O [PSM-0512, DOTA-Cmp-Thr-Aib-Opa-[Cys-Lys-Cit-Aib-Asn-Cys]-Tle-Thr-NH2] ({DOTA}-[X1]T[Aib][2Pal]CK[Cit][Aib]NC[Tle]T-NH2; disulfide 5-10)

- IC50 [1, 5]: < 200 nM
- Kd ([2]; PSMA SPR assay, category): 12.6 to 126 nM
SMILES: CC(=O)N[C@H](C(=O)NC(C)(C)C(=O)N[C@@H](Cc1ccccc1)C(=O)N[C@H]1CSSC[C@@H](C(=O)N[C@H](C(=O)N[C@H](C(N)=O)[C@@H](C)O)C(C)(C)C)NC(=O)[C@H](CCC(=O)O)NC(=O)C(C)(C)NC(=O)[C@H](CCCNC(=N)N)NC(=O)[C@H](CCCCN)NC1=O)[C@@H](C)O [PSM-0563, Ac-Thr-Aib-Phe-[Cys-Lys-Arg-Aib-Glu-Cys]-Tle-Thr-NH2] (Ac-T[Aib]FCKR[Aib]EC[Tle]T-NH2; disulfide 4-9)
